{
  "source": "PubChem BioAssay AID328",
  "about": "(DTP/NCI, 2004)",
  "test_system": "BDF1 mice, P388 leukemia ip, median survival T/C",
  "assay": "NCI In Vivo Anticancer Drug Screen. Data for tumor model P388 Leukemia (intraperitoneal) in B6D2F1 (BDF1) mice",
  "details": "endpoint: median survival time, higher = longer survival",
  "procedure,_shortened": "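Each value expresses how treatment altered survival: treated-mouse outcome over vehicle-mouse outcome, both groups bearing the transplanted tumour.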",
  "key": {"[1]": {"details": "dose: 25.0 mg/kg/injection, schedule: Q01DX009 (ip), vehicle: saline with Tween-80"}, "[2]": {"details": "dose: 50.0 mg/kg/injection, schedule: Q01DX009 (ip), vehicle: saline with Tween-80"}, "[3]": {"details": "dose: 100.0 mg/kg/injection, schedule: Q04DX003 (ip), vehicle: saline with Tween-80"}, "[4]": {"details": "dose: 200.0 mg/kg/injection, schedule: Q04DX003 (ip), vehicle: saline with Tween-80"}, "[5]": {"details": "dose: 400.0 mg/kg/injection, schedule: Q04DX003 (ip), vehicle: saline with Tween-80"}, "[6]": {"details": "dose: 200.0 mg/kg/injection, schedule: Q04DX002 (ip), vehicle: saline with Tween-80"}, "[7]": {"details": "dose: 400.0 mg/kg/injection, schedule: Q04DX002 (ip), vehicle: saline with Tween-80"}, "[8]": {"details": "dose: 100.0 mg/kg/injection, schedule: Q01DX009 (ip), vehicle: saline with Tween-80"}, "[9]": {"details": "dose: 200.0 mg/kg/injection, schedule: Q01DX009 (ip), vehicle: saline with Tween-80"}},
  "note": "Several values for one entry are separate records, joined by “and”; a condition that tells them apart may be missing. Identical values can stand only once. Inconclusive results and toxic doses are left out.",
  "data": [
    {"compound": "COC(=O)c1ccc(Cl)c(Cl)c1", "values": [
      {"measurement": "T/C", "setting": "[1]", "result": "101 % of control"},
      {"measurement": "T/C", "setting": "dose: 25.0 mg/kg/injection, schedule: Q04DX003 (ip), vehicle: saline with Tween-80", "result": "102 % of control"},
      {"measurement": "T/C", "setting": "[2]", "result": "116 % of control"},
      {"measurement": "T/C", "setting": "dose: 50.0 mg/kg/injection, schedule: Q04DX003 (ip), vehicle: saline with Tween-80", "result": "94 % of control and 100 % of control and 108 % of control"},
      {"measurement": "T/C", "setting": "[3]", "result": "97 % of control and 98 % of control and 103 % of control"},
      {"measurement": "T/C", "setting": "dose: 150.0 mg/kg/injection, schedule: Q04DX003 (ip), vehicle: saline with Tween-80", "result": "98 % of control"},
      {"measurement": "T/C", "setting": "[4]", "result": "108 % of control and 112 % of control"},
      {"measurement": "T/C", "setting": "dose: 300.0 mg/kg/injection, schedule: Q04DX003 (ip), vehicle: saline with Tween-80", "result": "110 % of control"},
      {"measurement": "T/C", "setting": "[5]", "result": "107 % of control"}
    ]},
    {"compound": "Cc1c(C/C(=N/O)C(=O)O)[nH]c(=S)[nH]c1=O", "values": [
      {"measurement": "T/C", "setting": "[3]", "result": "100 % of control"},
      {"measurement": "T/C", "setting": "[4]", "result": "87 % of control"},
      {"measurement": "T/C", "setting": "[5]", "result": "100 % of control"}
    ]},
    {"compound": "COc1cc([C@@H]2c3cc4c(cc3[C@H](O)[C@H]3COC(=O)[C@H]23)OCO4)cc(OC)c1OC", "values": [
      {"measurement": "T/C", "setting": "dose: 1.0 mg/kg/injection, schedule: Q01DX010 (ip), vehicle: steriod suspending solution", "result": "118 % of control"},
      {"measurement": "T/C", "setting": "dose: 2.0 mg/kg/injection, schedule: Q01DX010 (ip), vehicle: carboxymethylcellulose (CMC)", "result": "171 % of control"},
      {"measurement": "T/C", "setting": "dose: 2.25 mg/kg/injection, schedule: Q01DX001 (ip), vehicle: other", "result": "115 % of control"},
      {"measurement": "T/C", "setting": "dose: 2.25 mg/kg/injection, schedule: Q01DX010 (ip), vehicle: other", "result": "150 % of control"},
      {"measurement": "T/C", "setting": "dose: 4.0 mg/kg/injection, schedule: Q01DX010 (ip), vehicle: carboxymethylcellulose (CMC)", "result": "95 % of control"},
      {"measurement": "T/C", "setting": "dose: 4.5 mg/kg/injection, schedule: Q01DX010 (ip), vehicle: other", "result": "154 % of control"},
      {"measurement": "T/C", "setting": "dose: 9.0 mg/kg/injection, schedule: Q01DX001 (ip), vehicle: other", "result": "115 % of control"},
      {"measurement": "T/C", "setting": "dose: 9.0 mg/kg/injection, schedule: Q01DX010 (ip), vehicle: other", "result": "95 % of control"}
    ]},
    {"compound": "C=C1CC2(CCC(C(C)(C)C)CC2)OC1=O", "note": "(stereo unspecified)", "values": [
      {"measurement": "T/C", "setting": "dose: 100.0 mg/kg/injection, schedule: Q04DX002 (ip), vehicle: saline with Tween-80", "result": "105 % of control"},
      {"measurement": "T/C", "setting": "[6]", "result": "108 % of control"},
      {"measurement": "T/C", "setting": "[7]", "result": "97 % of control"}
    ]},
    {"compound": "Nc1cc(=O)n(-c2ccccc2)[nH]1", "values": [
      {"measurement": "T/C", "setting": "[2]", "result": "105 % of control"},
      {"measurement": "T/C", "setting": "[8]", "result": "102 % of control"},
      {"measurement": "T/C", "setting": "[9]", "result": "109 % of control"}
    ]},
    {"compound": "O=c1c[n+](-c2ccccc2)[nH]o1", "values": [
      {"measurement": "T/C", "setting": "dose: 100.0 mg/kg/injection, schedule: Q01DX009 (ip), vehicle: Klucel (hydroxypropylcellulose) (HPC)", "result": "115 % of control"},
      {"measurement": "T/C", "setting": "dose: 200.0 mg/kg/injection, schedule: Q01DX009 (ip), vehicle: Klucel (hydroxypropylcellulose) (HPC)", "result": "90 % of control"}
    ]},
    {"compound": "O=P(O)(Oc1ccccc1)Oc1ccccc1.[Al]", "values": [
      {"measurement": "T/C", "setting": "[2]", "result": "104 % of control"},
      {"measurement": "T/C", "setting": "[8]", "result": "95 % of control"},
      {"measurement": "T/C", "setting": "[9]", "result": "95 % of control"}
    ]},
    {"compound": "O=c1ccc2c([nH]1)CCC2", "values": [
      {"measurement": "T/C", "setting": "[1]", "result": "86 % of control"},
      {"measurement": "T/C", "setting": "dose: 25.0 mg/kg/injection, schedule: Q04DX003 (ip), vehicle: saline", "result": "100 % of control"},
      {"measurement": "T/C", "setting": "[2]", "result": "90 % of control"},
      {"measurement": "T/C", "setting": "dose: 50.0 mg/kg/injection, schedule: Q04DX003 (ip), vehicle: saline", "result": "95 % of control"},
      {"measurement": "T/C", "setting": "[8]", "result": "95 % of control"},
      {"measurement": "T/C", "setting": "dose: 100.0 mg/kg/injection, schedule: Q04DX003 (ip), vehicle: saline", "result": "100 % of control"}
    ]},
    {"compound": "Nc1nc(N)c2c(Cl)c(CNc3ccc(Cl)c(Cl)c3)ccc2n1", "values": [
      {"measurement": "T/C", "setting": "dose: 6.25 mg/kg/injection, schedule: Q01DX009 (ip), vehicle: saline with Tween-80", "result": "154 % of control"},
      {"measurement": "T/C", "setting": "dose: 6.25 mg/kg/injection, schedule: Q01DX009 (ip), vehicle: water", "result": "123 % of control"},
      {"measurement": "T/C", "setting": "dose: 12.5 mg/kg/injection, schedule: Q01DX009 (ip), vehicle: saline with Tween-80", "result": "169 % of control"},
      {"measurement": "T/C", "setting": "dose: 12.5 mg/kg/injection, schedule: Q01DX009 (ip), vehicle: water", "result": "179 % of control"},
      {"measurement": "T/C", "setting": "dose: 25.0 mg/kg/injection, schedule: Q01DX009 (ip), vehicle: water", "result": "203 % of control"},
      {"measurement": "T/C", "setting": "dose: 25.0 mg/kg/injection, schedule: Q04DX003 (ip), vehicle: water", "result": "116 % of control"},
      {"measurement": "T/C", "setting": "dose: 50.0 mg/kg/injection, schedule: Q01DX009 (ip), vehicle: water", "result": "88 % of control"},
      {"measurement": "T/C", "setting": "dose: 50.0 mg/kg/injection, schedule: Q04DX003 (ip), vehicle: water", "result": "169 % of control"},
      {"measurement": "T/C", "setting": "dose: 100.0 mg/kg/injection, schedule: Q04DX003 (ip), vehicle: water", "result": "153 % of control and 173 % of control"},
      {"measurement": "T/C", "setting": "dose: 300.0 mg/kg/injection, schedule: Q04DX003 (ip), vehicle: water", "result": "86 % of control"}
    ]},
    {"compound": "COc1c(I)cc(/C=C(\\C)[N+](=O)[O-])cc1I", "values": [
      {"measurement": "T/C", "setting": "[2]", "result": "110 % of control"},
      {"measurement": "T/C", "setting": "[8]", "result": "112 % of control"}
    ]},
    {"compound": "CN(C)C1C(=O)C(C(=O)NCN2CCOB(c3ccccc3)OCC2)=C(O)C2(O)C(O)=C3C(=O)C4C(O)=CC=CC4C(C)(O)C3CC12", "note": "(stereo unspecified)", "values": [
      {"measurement": "T/C", "setting": "[6]", "result": "93 % of control"},
      {"measurement": "T/C", "setting": "[7]", "result": "112 % of control"}
    ]}
  ]
}
